Holding throughout (experiment): Figure S2a opioid peptide screen on chemokine receptors
Holding throughout (design): dose or concentration left out as unconfirmed

One test concerns the target T1, CXCR5 (Homo sapiens, UniProt P32302).
T1 construct: expressed in transfected cells
T1 sequence (P32302 1-372): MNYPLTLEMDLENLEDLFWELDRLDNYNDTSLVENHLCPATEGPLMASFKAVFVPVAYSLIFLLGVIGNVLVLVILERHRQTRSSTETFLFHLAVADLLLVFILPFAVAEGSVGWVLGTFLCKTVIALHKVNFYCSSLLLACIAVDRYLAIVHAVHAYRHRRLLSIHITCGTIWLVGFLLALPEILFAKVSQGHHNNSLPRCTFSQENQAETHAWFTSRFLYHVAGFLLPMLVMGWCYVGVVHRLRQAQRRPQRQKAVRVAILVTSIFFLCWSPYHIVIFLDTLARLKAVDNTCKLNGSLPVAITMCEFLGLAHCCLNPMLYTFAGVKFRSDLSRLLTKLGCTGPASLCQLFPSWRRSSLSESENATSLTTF
The test is classed as cell-based.

The next test concerns the target T2, CCR4 (Homo sapiens, UniProt P51679).
T2 construct: expressed in transfected cells
T2 sequence (P51679 1-360): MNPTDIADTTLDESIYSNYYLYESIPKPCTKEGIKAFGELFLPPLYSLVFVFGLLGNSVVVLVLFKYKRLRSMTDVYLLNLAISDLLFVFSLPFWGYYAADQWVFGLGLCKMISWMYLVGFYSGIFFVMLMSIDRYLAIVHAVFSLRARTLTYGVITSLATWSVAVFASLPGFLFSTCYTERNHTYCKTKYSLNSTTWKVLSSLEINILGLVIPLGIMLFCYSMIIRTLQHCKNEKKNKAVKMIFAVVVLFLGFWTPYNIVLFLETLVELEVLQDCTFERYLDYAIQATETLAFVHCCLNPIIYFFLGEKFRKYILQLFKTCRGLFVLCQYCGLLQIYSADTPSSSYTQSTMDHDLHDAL
The test is classed as cell-based.

A further test deals with CCR8 (Homo sapiens, UniProt P51685). The note with it: read-out: CCR8 activity, ctrl+ = 100, Figure S2a.
Chain of CCR8 (P51685 whole entry): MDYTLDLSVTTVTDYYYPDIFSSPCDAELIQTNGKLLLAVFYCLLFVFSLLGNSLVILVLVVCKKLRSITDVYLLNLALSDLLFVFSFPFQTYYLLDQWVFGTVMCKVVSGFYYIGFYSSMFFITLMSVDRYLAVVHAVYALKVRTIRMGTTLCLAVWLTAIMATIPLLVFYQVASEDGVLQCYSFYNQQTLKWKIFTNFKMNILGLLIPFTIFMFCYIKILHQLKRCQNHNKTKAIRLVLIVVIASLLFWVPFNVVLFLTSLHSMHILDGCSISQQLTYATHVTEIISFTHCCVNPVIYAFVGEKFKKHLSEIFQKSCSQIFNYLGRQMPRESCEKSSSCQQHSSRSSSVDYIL
A further test has as its target T3, CXCR1 (Homo sapiens, UniProt P25024).
T3 construct: expressed in transfected cells
T3 sequence (P25024 1-350): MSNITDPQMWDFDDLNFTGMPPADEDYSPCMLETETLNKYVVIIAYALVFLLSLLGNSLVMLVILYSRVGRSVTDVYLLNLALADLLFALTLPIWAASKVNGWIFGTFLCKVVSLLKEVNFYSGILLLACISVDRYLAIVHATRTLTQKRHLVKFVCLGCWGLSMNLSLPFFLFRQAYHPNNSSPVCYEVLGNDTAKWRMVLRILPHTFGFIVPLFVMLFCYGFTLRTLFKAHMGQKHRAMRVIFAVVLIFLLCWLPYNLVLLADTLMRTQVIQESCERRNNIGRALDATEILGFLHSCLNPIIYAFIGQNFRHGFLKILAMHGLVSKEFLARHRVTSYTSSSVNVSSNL
The test is classed as cell-based.

The next test concerns the target T4, CXCR6 (Homo sapiens, UniProt O00574).
T4 construct: expressed in transfected cells
The test is classed as cell-based.

In another test the target is T5, ACKR2 (Homo sapiens, UniProt O00590).
T5 construct: expressed in transfected cells; host or cells: U87 cells (human glioblastoma)
T5 sequence (O00590 1-384): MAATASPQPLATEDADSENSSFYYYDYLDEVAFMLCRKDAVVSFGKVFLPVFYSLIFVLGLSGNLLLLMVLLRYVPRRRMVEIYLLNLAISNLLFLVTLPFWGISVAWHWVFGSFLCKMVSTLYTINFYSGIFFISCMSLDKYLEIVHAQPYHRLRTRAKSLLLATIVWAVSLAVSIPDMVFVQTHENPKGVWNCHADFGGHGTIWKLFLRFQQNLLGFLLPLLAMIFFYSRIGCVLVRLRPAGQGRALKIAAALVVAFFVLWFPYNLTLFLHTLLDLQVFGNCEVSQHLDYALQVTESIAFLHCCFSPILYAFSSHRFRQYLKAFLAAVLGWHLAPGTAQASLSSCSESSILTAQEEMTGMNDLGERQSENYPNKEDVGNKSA
The test is classed as cell-based.

A further test addresses T6, CCR3 (Homo sapiens, UniProt P51677).
T6 sequence (P51677 1-355): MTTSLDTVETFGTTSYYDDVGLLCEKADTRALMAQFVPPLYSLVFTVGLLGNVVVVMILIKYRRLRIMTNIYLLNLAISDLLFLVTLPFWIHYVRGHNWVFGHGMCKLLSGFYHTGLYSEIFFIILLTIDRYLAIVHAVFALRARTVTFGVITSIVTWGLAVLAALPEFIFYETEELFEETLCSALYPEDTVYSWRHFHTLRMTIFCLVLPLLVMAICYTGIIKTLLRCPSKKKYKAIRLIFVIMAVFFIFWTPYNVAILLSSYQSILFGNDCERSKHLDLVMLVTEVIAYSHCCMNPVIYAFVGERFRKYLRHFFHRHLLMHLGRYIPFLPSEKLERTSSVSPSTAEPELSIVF
The note with it: read-out: CCR3 activity, ctrl+ = 100, Figure S2a.

Molecules are shown by their SMILES. Like-named read-outs stand apart in the source and are kept apart here. Starred links: 1 amine or outer side, 2 acyl side, 3 side chain; linkers in the order of their positions; H or OH if unused. Non-standard residues stand in square brackets, D forms with d. Residues, ends and D or L forms follow the SMILES beside them. X1 = N[C@@H](Cc1ccccc1)CN(CC(=O)[*:2])[*:1]

T4 sequence (O00574 whole entry): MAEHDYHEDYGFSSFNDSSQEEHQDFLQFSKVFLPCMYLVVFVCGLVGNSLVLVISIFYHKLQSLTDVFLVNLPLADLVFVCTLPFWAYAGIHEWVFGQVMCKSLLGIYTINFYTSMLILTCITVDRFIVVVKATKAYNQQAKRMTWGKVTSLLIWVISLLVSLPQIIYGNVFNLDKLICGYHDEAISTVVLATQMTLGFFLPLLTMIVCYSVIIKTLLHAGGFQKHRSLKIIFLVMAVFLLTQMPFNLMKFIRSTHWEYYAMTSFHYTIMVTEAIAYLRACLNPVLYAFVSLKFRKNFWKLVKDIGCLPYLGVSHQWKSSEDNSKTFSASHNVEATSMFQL

Turning to `C[C@H](NC(=O)CNC(=O)[C@@H](NC(=O)[C@H](Cc1ccccc1)NC(=O)CNC(=O)CNC[C@@H](N)Cc1ccccc1)[C@@H](C)O)C(=O)N[C@@H](CCCNC(=N)N)C(=O)N[C@@H](CCCCN)C(=O)N[C@@H](CO)C(=O)N[C@@H](C)C(=O)N[C@@H](CCCNC(=N)N)C(=O)N[C@@H](CCCCN)C(N)=O` [FG Nociceptin 1-13] (H-[X1]GFTGARKSARK-NH2), the activation on CXCR5 (replicate 1, read-out: CXCR5 activity, ctrl+ = 100) is -5.41%; at CXCR5 (replicate 2, read-out: CXCR5 activity, ctrl+ = 100), -2.11%; on CXCR5 (replicate 3, read-out: CXCR5 activity, ctrl+ = 100) it was -0.496%; on CCR4 (replicate 1, read-out: CCR4 activity, ctrl+ = 100), -0.803%; on CCR4 (replicate 2, read-out: CCR4 activity, ctrl+ = 100), -1.43%; on CCR4 (replicate 3, read-out: CCR4 activity, ctrl+ = 100), -2.08%. Further, the activation at CCR8 (replicate 1) was -24.5%; on CCR8 (replicate 2), 3.75%; on CCR8 (replicate 3) it was 4.53%; at CXCR1 (replicate 1, read-out: CXCR1 activity, ctrl+ = 100), -0.231%; at CXCR1 (replicate 2, read-out: CXCR1 activity, ctrl+ = 100), 1.41%; on CXCR1 (replicate 3, read-out: CXCR1 activity, ctrl+ = 100), 1.07%. In addition, the activation at CXCR6 (replicate 1, read-out: CXCR6 activity, ctrl+ = 100) is -0.041%; on CXCR6 (replicate 2, read-out: CXCR6 activity, ctrl+ = 100), 0.0677%; at CXCR6 (replicate 3, read-out: CXCR6 activity, ctrl+ = 100) it was 0.612%; on ACKR2 (replicate 1, read-out: ACKR2 activity, ctrl+ = 100), -51.1%; at ACKR2 (replicate 2, read-out: ACKR2 activity, ctrl+ = 100), 36.5%; on ACKR2 (replicate 3, read-out: ACKR2 activity, ctrl+ = 100) it was 2.35%. Besides, the activation stood at 13% at CCR3 (replicate 1), 6.22% on CCR3 (replicate 2) and 14.1% on CCR3 (replicate 3).

Source of the values: paper PMC7305236, “The atypical chemokine receptor ACKR3/CXCR7 is a broad-spectrum scavenger for opioid peptides” (Nature Communications, 2020).
